From patent publication US4812443A, “Methods for enhancing differentiation and proliferation of hematopoietic progenitor cells” (Kuraray Co., Ltd., priority 1984, dated 1989)

How the values were obtained:
[1] = tested on: reserpine-induced blepharoptosis; assay: Reserpine antagonistic action in mice; assay type: in vivo, mouse (ddY-strain); conditions: 150, 300 and 600 mg/kg; reserpine 4 mg/kg i.p.; one hour after administration; vs control
Description: (§1) Since the dolichol is a water-insoluble oily liquid, it was used as a solution in sesame oil in the case of oral administration, and as a suspension in a nonionic surfactant (HCO-60, a trade name for a product of Nikko Chemical Co., Ltd.) in the case of intraperitoneal administration and in an in vitro test in the following experiment.
In the following experiment, ddY-strain male mice, Wistar-strain male rats (Shizuoka Laboratory Animal Center), Japanese white male rabbits (Carely) and Hartley-strain male guinea pigs (Clea Japan Inc.) were used. The animals were kept under conditions including a temperature of 23±1° C., a humidity of 55±10%, an illuminating time (7:00 am to 9.00 pm) and 15 ventilations per hour. The mice and rats were fed with solid feeds MF (a product of Oriental Yeast Co., Ltd.) and the guinea pigs and rabbits were fed with solid feeds GM-3 and RM-1 (Funabashi Farm Co.). They were allowed to take tap water freely. […]
ddY-strain male mice (27-30 g), 6 per group, were used. […] One hour after the administration of dolichol, the degree of blepharoptosis in the mice was observed and recorded in accordance with the Rubin's standards of evaluation (0: normal opening of the eyes, 1: 1/4 blepharoptosis, 2: 1/2 blepharoptosis, 3: 3/4 blepharoptosis, 4: complete blepharoptosis).

[2] = Diuretic action in rats; assay type: in vivo, rat (Wistar-strain); conditions: 150, 300 and 600 mg/kg; 6 hours after administration; vs control
Description: as §1
(§2) In the following experiment, ddY-strain male mice, Wistar-strain male rats (Shizuoka Laboratory Animal Center), Japanese white male rabbits (Carely) and Hartley-strain male guinea pigs (Clea Japan Inc.) were used. The animals were kept under conditions including a temperature of 23±1° C., a humidity of 55±10%, an illuminating time (7:00 am to 9.00 pm) and 15 ventilations per hour. The mice and rats were fed with solid feeds MF (a product of Oriental Yeast Co., Ltd.) and the guinea pigs and rabbits were fed with solid feeds GM-3 and RM-1 (Funabashi Farm Co.). They were allowed to take tap water freely. The animals were preliminarily kept for more than one week, and those which were healthy in general conditions were used in the experiments.
Wistar-strain male rats (80-90 g), 6 per group, were used. Immediately after administration of dolichol to the rats, normal saline solution was orally administered to the rats in a dose of 2.5 ml/100 g. […] Urine was taken 6 hours after administration of dolichol, and its amount was measured.

[3] = tested on: extracted ileum; assay: Peripheral action, extracted ileum of guinea pigs; parameters: species or system guinea pig (Hartley-strain); conditions: up to 10^-4 g/ml; 32° C.
Description: as §1
In the following experiment, ddY-strain male mice, Wistar-strain male rats (Shizuoka Laboratory Animal Center), Japanese white male rabbits (Carely) and Hartley-strain male guinea pigs (Clea Japan Inc.) were used. The animals were kept under conditions including a temperature of 23±1° C., a humidity of 55±10%, an illuminating time (7:00 am to 9.00 pm) and 15 ventilations per hour. […]
Hartley-strain male guinea pigs (350 to 400 g), 3 per group, were used, and the extracted ileum samples were suspended in Tyrode solution at 32° C. through which air was introduced. The contraction of the ileum was recorded on an ink-writing oscillograph (EMP-3004, Nippon Photoelectric Co. through an isotonic transducer (TD-112S, Nippon Photoelectric Co.). The direct action of dolichol and the antagonistic action of dolichol against acetylcholine, histamine and nicotine in a concentration of 10^-6 g/ml, 10^-5 g/ml, and 10^-4 g/ml, respectively, were examined.

[4] = tested on: mice; assay: Neuropharmacological test using mice (Irwin's method); assay type: in vivo, mouse (ddY-strain); conditions: 150, 300 and 600 mg/kg i.p.
Description: as §1, §2
ddY-strain male mice, 6 per group, were used, and their changes in behavior, nervous symptoms, autonomic nervous symptoms and toxic symptoms were observed, analyzed and recorded in accordance with the Irwin's method of observation. […]

[5] = tested on: extracted trachea; assay: Peripheral action, extracted trachea of guinea pigs; parameters: species or system guinea pig (Hartley-strain); conditions: up to 10^-4 g/ml, 37° C.
Description: as §1, §2
Hartley-strain male guinea pigs (350-400 g), 3 per group, were used. The extracted trachea was suspended in Locke-Ringer solution at 37° C. through which air was introduced. The contraction of the trachea was recorded in the same way as in the case of the extracted ileum. […]

[6] = tested on: extracted spermiduct; assay: Peripheral action, extracted spermiduct of rats; parameters: species or system rat (Wistar-strain); conditions: up to 10^-4 g/ml, 32° C.
Description: as §1, §2
Wistar-strain male rats (180 to 200 g), 3 per group, were used. The extracted spermiduct samples were suspended in Locke-Ringer solution at 32° C. The contraction of the spermiduct was recorded by the same method as in the preceding section. […]

[7] = Water solubility; assay type: physicochemical
[8] = tested on: erythropoiesis; assay: Erythropoiesis in vivo, 59Fe incorporation in phenylhydrazine-induced anemic mice (Run 6); parameters: species or system mouse (BDF1-strain); conditions: 250 mg/kg twice i.p.
Procedure: Phenylhydrazine was administered to normal mice and hereditarily anemic mice to induce severe hemolytic anemia. Then, the rate of erythropoiesis during recovering of anemia was determined by measuring the rate of radioactive iron (^59 Fe) incorporation into newly formed red blood cells [P. M. Cotes, D. R. Bangham, Nature (London), 191, 1067 (1961)]. The testing method and results are described below.
Phenylhydrazine hydrochloride (60 mg/kg) dissolved in normal saline solution was subcutaneously injected into BDF1 -strain mice (6 weeks old, female) three times, namely on the 1st, 2nd and 4th day of the experiment to produce phenylhydrazine-induced anemic mice. Dolichol in a dose of 250 mg/kg (25 mg of dolichol was emulsified in 1 ml of a 1% aqueous solution of sodium carboxymethyl cellulose; 0.2 ml/20 g of the body weight) was intraperitoneally administered to the mice twice, namely on the 1st and 2nd day. […] On the 6th day, 0.5 ml of the whole blood was taken from each mouse, and the radioactivity of ^59 Fe incorporated into the whole blood during the period of 48 hours was measured by an auto-gamma-counter. […] By assuming that the amount of the whole blood of each mouse was 7% of the body weight, the ^59 Fe incorporation rates were calculated in accordance with the following equation and averaged. […]

[9] = tested on: acetic acid writhing; assay: Analgesic action in mice (acetic acid writhing method); assay type: in vivo, mouse (ddY-strain); conditions: 150, 300 and 600 mg/kg; one hour before acetic acid; vs control
Description: as §1, §2
ddY-strain male mice (27-30 g), 6 per group, were used. One hour after administration of dolichol to the mice, 0.6% acetic acid was intraperitoneally administered to the mice in a dose of 0.1 ml/10 g. […] The inhibitory action on acetic acid writhing was thus examined.

Substance: dolichol
- Antagonistic action against reserpine-induced blepharoptosis [1]: no antagonistic action
- Diuretic action (amount of urine) [2]: no significant difference was noted
- Direct action on extracted ileum [3]: no direct action
- Effect on behaviors, nervous symptoms, autonomic nervous symptoms and toxic symptoms [4]: no effect was observed
- Antagonistic action against isoproterenol ([5]; extracted trachea): nor antagonistic action
- Direct action on extracted trachea [5]: no direct action
- Antagonistic action against noradrenalin ([6]; extracted spermiduct): nor any antagonistic action
- Direct action on extracted spermiduct [6]: no direct action
- Water solubility [7]: water-insoluble
- 59Fe incorporation rate (%), dolichol administered group ([8]; 48 hours, control group 48.2): 50.2%
- Erythropoiesis enhancing ratio (%) ([8]; percent increase of 59Fe incorporation rate vs control): +4.2%
- Inhibitory action on acetic acid writhing [9]: no significant difference was noted
